Experimental data as given in US12115208B2, “Small-molecule adjuvants for antibiotics to address antibiotic resistance” (HIGH POINT UNIVERSITY, priority 2017, dated 2024).

Assays:
S. aureus USA100 (MRSA) = assay: microbe, parasite or virus in culture; type: cell-based, Staphylococcus aureus; details: Staphylococcus aureus, compound alone, CAMHB, 18 h
[1] = tested on: S. aureus NR-49120 (VRSA); assay: microbe, parasite or virus in culture; details: Staphylococcus aureus, 18 h
Method: Minimum inhibitory concentrations were determined using a standard serial broth microdilution method. […] Mid-log-phase cultures were diluted to a concentration of approximately 5×10^5 CFU/ml in cation-adjusted Mueller-Hinton broth (CAMHB). Wells 2-11 of a 96-well polyvinylchloride microtiter plate were inoculated with 100 μl of bacterial suspension. 100 μl of uninnoculated CAMHB was added to well 12 to serve as a negative control. The top wells were inoculated with 200 μl of bacterial suspension with either antibiotics or compounds added. Serial dilutions were performed in wells 2-10, leaving well 11 to serve as the positive control. The microtiter plates were covered with Press-n-Seal and incubated at 37° C. for 18 hours without agitation. Plates were scored by visual detection of well turbidity.

[2] = tested on: various S. aureus strains; assay: microbe, parasite or virus in culture; details: Staphylococcus aureus, read-out: MICs
S. aureus ATCC 29213 = assay: Minimum inhibitory concentration, broth microdilution; type: cell-based; details: Staphylococcus aureus, ATCC29213; compound alone; S. aureus ATCC 29213; CAMHB, 18 h; read-out: MIC
Method: The compounds were then analyzed for antibiotic repotentiation activity. […] The tested strains included USA300, which is a common and particularly virulent strain of community-acquired MRSA.

[3] = tested on: S. epidermidis ATCC 49461 biofilm; assay: Biofilm inhibition, crystal violet assay; type: cell-based, Staphylococcus epidermidis; details: Staphylococcus epidermidis, ATCC49461, 30 h, read-out: Inhibition of biofilm formation IC50
Method: A standard static crystal violet assay was used to quantify biofilm inhibition.^45 Cultures of S. aureus or S. epidermidis were grown overnight in TSBG (tryptic soy broth with 5% glucose) at 37° C. with shaking. These cultures were used to inoculate fresh TSBG to a calculated optical density of 0.01 at 600 nm (OD600). […] Untreated aliquots were used as a positive control and water served as a negative control. 100 μl of these suspensions were added to the wells of a 96-well polyvinylchloride microtiter plate. […] After incubation, media was discarded and the plates were washed with water to remove non-adherent cells. Adherent biofilms were stained with 110 μl of crystal violet (0.1% in water) and incubated at room temperature for thirty minutes. The crystal violet staining solution was discarded and plates were washed with water to remove excess stain. The resulting stained biofilms were solubilized with 200 μL of 95% ethanol for 10 minutes. 125 μl of the ethanol solutions were transferred to a clear polystyrene microtiter plate for evaluation. Absorbance at 540 nm was recorded using a BioTek Synergy H1 microplate reader. The absorbance of the negative control lanes was subtracted from the experimental values to account for background staining. Percent inhibition was calculated by comparison of the absorbance values of control versus treated wells under identical conditions.

[4] = tested on: S. aureus 43300 pre-formed biofilm; assay: Biofilm dispersion assay; type: cell-based; details: Staphylococcus aureus, S. aureus 43300 (MRSA)
Method: (§1) Overnight cultures of S. aureus or S. epidermidis were subcultured to an OD600 of 0.01 in tryptic soy broth supplemented with 0.5% glucose (TSBG). For USA300Δ/+stk1, TSBG was supplemented with 0.2% xylose to induce transcription of stk1. 100 μl of the culture was distributed into rows 2-11 of a 96-well polyvinylchloride plate. Rows 1 and 12 were filled with 100 μl of sterile water and served as the negative controls. […] After the incubation period, the media was discarded and the plates were washed with water to remove non-adherent cells. Media containing the desired concentrations of compound was prepared and 100 μl was added to the desired rows. Media alone was added as a positive control and sterile water was added as a negative control. The plates were sealed with Glad Press-n-Seal and incubated under stationary conditions for another 24 hours. The media was discarded and plates were washed with water to remove any non-adherent bacteria. 110 μl of an aqueous crystal violet solution (0.1%) was added to each well and allowed to rest at room temperature to stain any biomass. After 30 minutes, the crystal violet solution was discarded and the plates were washed with water. The stained biomass was dissolved in 95% ethanol (200 μl) for 30 minutes and 125 μl was transferred to the corresponding wells of a flat-bottomed polystyrene 96-well plate. The absorbance of each well was measured at 540 nm. The wells that contained only water were used as background and subtracted from wells containing cultures.
(§2) Biofilm dispersion was quantified by calculating the ratio of the absorbance of the treated wells as compared to the untreated wells. These values were plotted and fit to a curve to determine the EC50.
(§3) Loratadine was also tested for the ability to disperse pre-formed biofilms. Biofilm dispersion is reported as an EC50, which is defined as the concentration of compound required to disperse 50% of the preformed biofilm.

[5] = tested on: S. aureus 29213 pre-formed biofilm; assay: Biofilm dispersion assay; type: cell-based; details: Staphylococcus aureus
Method: as §1, §2, §3

[6] = tested on: S. aureus USA100 pre-formed biofilm; assay: Biofilm dispersion assay; type: cell-based; details: Staphylococcus aureus, S. aureus USA100 (MRSA)
Method: as §1, §2, §3

[7] = tested on: S. aureus USA300 pre-formed biofilm; assay: Biofilm dispersion assay; type: cell-based; details: Staphylococcus aureus, S. aureus USA300 (MRSA)
Method: as §1, §2, §3

CCOC(=O)N1CCC(=C2c3ccc(Cl)cc3CCc3cccnc32)CC1 [Loratadine, ethyl 4-(8-chloro-5,6-dihydrobenzo[1,2]cyclohepta[2,4-b]pyridin-11-ylidene)piperidine-1-carboxylate]
25.1 ± 3.65 µM: IC50 [3]
> 200 µM: MIC (S. aureus USA100 (MRSA)) | MIC [1] | MIC [2] | MIC (S. aureus ATCC 29213) | EC50 [4] | EC50 [5] | EC50 [7]
121 µM: EC50 [6]
